{"source": "patent US20120284812A1", "about": "“Herbicide-Tolerant Plants” (BASF AGROCHEMICAL PRODUCTS, B.V., priority 2009, published 2012)", "key": {"rice calli": {"test_system": "rice calli", "assay": "Kill curves: tissue survival of rice calli on herbicide media", "type": "cell-based, Oryza sativa", "settings": "determined by kill curves and observations of continued culture", "procedure": "Once tissue culture conditions were determined, further establishment of selection conditions were established through the analysis of tissue survival in kill curves with cycloxydim, tepraloxydim, sethoxydim (FIG. 1) or haloxyfop (not shown). Careful consideration of accumulation of the herbicide in the tissue, as well as its persistence and stability in the cells and the culture media was performed. Through these experiments, a sub-lethal dose has been established for the initial selection of mutated material.\nAfter the establishment of the starting dose of sethoxydim, cycloxydim, tepraloxydim, and haloxyfop in selection media, the tissues were selected in a step-wise fashion by increasing the concentration of the ACCase inhibitor with each transfer until cells are recovered that grew vigorously in the presence of toxic doses (see FIG. 2). The resulting calli were further subcultured every 3-4 weeks to R001M with selective agent. Over 26,000 calli were subjected to selection for 4-5 subcultures until the selective pressure was above toxic levels as determined by kill curves and observations of continued culture. Toxic levels were determined to be 50 μM sethoxydim, 20 μM cycloxydim, 2.5 μM tepraloxydim (FIG. 1) and 10 μM haloxyfop (not shown)."}, "rice plants": {"test_system": "rice plants", "assay": "Greenhouse spray test of regenerants, rated for herbicide injury", "type": "in vivo, Oryza sativa", "settings": "400-1600 g ai/ha, 0.1% methylated seed oil, 1 and 2 weeks after treatment", "procedure": "Selected mutants and escapes were transferred to small pots. Wild-type cultivars and 3 biovars of red rice were germinated from seed to serve as controls.\nAfter ca. 3 weeks post-transplant, MO regenerants were sprayed using a track sprayer with 400-1600 g ai/ha cycloxydim (BAS 517H) supplemented with 0.1% methylated seed oil. After the plants had adapted to greenhouse conditions, a subset were sprayed with 800 g ai/ha cycloxydim. Once sprayed, plants were kept on drought conditions for 24 hours before being watered and fertilized again. Sprayed plants were photographed and rated for herbicide injury at 1 (FIG. 3) and 2 weeks after treatment (FIG. 4). […] FIGS. 5-15 provide nucleic acid and/or amino acid sequences of acetyl-Coenzyme A carboxylase enzymes from various plants. FIG. 17 provides a graph showing results for mutant rice versus various ACCase inhibitors."}, "[1]": {"test_system": "ACCase-inhibitor tolerant rice plants", "assay": "Field treatment of ACCase-inhibitor tolerant rice plants", "type": "in vivo", "settings": "600 g/ha treatment, data not shown"}}}
{"molecule": "CCCC(=NOCC)C1=C(O)CC(C2CCCSC2)CC1=O", "note": "(stereo not shown) [cycloxydim]", "values": [{"measurement": "Toxic levels", "setting": "rice calli", "value": 20, "unit": "µM"}, {"measurement": "herbicide injury", "setting": "rice plants; control plants and tissue culture escapes", "value": "heavily damaged"}, {"measurement": "herbicide injury", "setting": "rice plants; plants containing the I1,781 (Am)L heterozygous mutation", "value": "No injury"}, {"measurement": "herbicide tolerance phenotypes in the field", "setting": "[1]", "value": "exhibited"}]}
{"molecule": "CC(Oc1ccc(Oc2ncc(C(F)(F)F)cc2Cl)cc1)C(=O)O", "note": "(stereo not shown) [haloxyfop]", "values": [{"measurement": "Toxic levels", "setting": "rice calli", "value": 10, "unit": "µM"}]}
{"molecule": "CCC/C(=N\\OCC)C1=C(O)CC(CC(C)SCC)CC1=O", "note": "(stereo not shown) [sethoxydim]", "values": [{"measurement": "Toxic levels", "setting": "rice calli", "value": 50, "unit": "µM"}]}
{"molecule": "CC/C(=N\\OC/C=C/Cl)C1=C(O)CC(C2CCOCC2)CC1=O", "note": "(stereo not shown) [tepraloxydim]", "values": [{"measurement": "Toxic levels", "setting": "rice calli", "value": 2.5, "unit": "µM"}]}
